Test results as given in article PMC9780499, “Designing double-site lipidated peptide amphiphiles as potent antimicrobial biomaterials to combat multidrug-resistant bacteria” (Frontiers in Microbiology, 2022).
≈ marks a conversion by molar mass, not a printed value. Peptide text beside a SMILES is read from it. * marks the point of attachment. Octanoyl = CCCCCCCC(=O)*; Hexanoyl = CCCCCC(=O)*

What was measured:
proteinase K = proteinase K (Parengyodontium album, UniProt P06873); assay: Proteolytic stability, tricine-SDS-PAGE; format: in vitro ADME; conditions: peptide 2.56 mM + 500 μg/ml protease (equal volumes), 16.5% tricine-SDS-PAGE
proteinase K, sequence (P06873 106-384): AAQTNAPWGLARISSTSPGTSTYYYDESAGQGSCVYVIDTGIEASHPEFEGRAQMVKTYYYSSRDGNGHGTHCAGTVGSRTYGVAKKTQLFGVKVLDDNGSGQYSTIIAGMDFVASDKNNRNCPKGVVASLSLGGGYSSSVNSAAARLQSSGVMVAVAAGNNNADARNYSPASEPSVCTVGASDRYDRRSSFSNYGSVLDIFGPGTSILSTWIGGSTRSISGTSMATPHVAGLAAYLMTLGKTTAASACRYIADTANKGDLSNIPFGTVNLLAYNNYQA
Experimental: 16.5% tricine−SDS − PAGE was used to evaluate the proteolytic stability of the peptides. The peptides (2.56 mM, 50 μl) were incubated with protease (500 μg/ml, 50 μl) at 37°C. After incubating for 1, 2, 4, or 8 h, the mixture (20 μl) was drawn out and placed in a bath of boiling water for 5 min. The mixture was then diluted to the suitable concentration for 16.5% tricine-SDS-PAGE analysis.

E. faecalis 29212 = format: cell-based, Enterococcus faecalis; conditions: 29212, 20 h
Source text: (§1) Escherichia coli ATCC25922, E. coli UB1005, Pseudomonas aeruginosa ATCC27853, Salmonella typhimurium ATCC14028, S. typhimurium C7731, Staphylococcus aureus ATCC29213, Methicillin-resistant S. aureus (MRSA) ATCC43300, S. epidermidis ATCC12228, and Enterococcus faecalis ATCC29212 were stored by the institute of animal nutrition, Northeast Agricultural University (Harbin, China). Multidrug-Resistant E. coli HP73 and E. coli HP74 were clinically isolated from swine-derived Escherichia coli and stored by the institute of animal nutrition, Northeast Agricultural University (Harbin, China).
(§2) The MICs were determined using a broth microdilution method with reference to Clinical and Laboratory Standards Institute (CLSI) guidelines ([Wiegand et al., 2008]). After a two-fold serial dilution of the peptides (50 μl, dilution buffer: 0.01% acetic acid containing 0.2% BSA) prepared in a 96-well plate, a series of an equal volume of bacterial solution (50 μl) prepared in Mueller-Hinton broth (MHB) were added to the same 96-well plate, and the final bacterial inoculum size in each well of the 96-well plate was approximately 5 × 10^5 CFU/ml. As positive and negative controls, bacteria solution without peptides and blank samples without bacteria were prepared in the same 96-well plate. […] The lowest peptide concentration at which there was no increase in optical density was referred to as the MIC.

S. epidermidis 12228 = format: cell-based; conditions: 12228, 20 h
Source text: as §1, §2

HEK293T = assay: MTT cytotoxicity assay; format: cell-based, human
Experimental: (§3) 3-(4,5-dimethylthiozol-2-yl)-2,5-diphenyltetrazolium bromide (MTT) assay and live/dead cell staining assay were conducted to assess the peptide cytotoxicity. For the MTT assay, cell lines were seeded and passaged twice in high-glucose Dulbecco’s modified Eagle’s medium (DMEM, containing 100 μg/ml streptomycin, 100 U/ml penicillin, and 10% vol/vol fetal bovine serum) or Dulbecco’s Modified Eagle Medium/Nutrient Mixture F-12 (DMEM/F-12, containing 100 μg/ml streptomycin, 100 U/ml penicillin, and 10% vol/vol fetal bovine serum) at a 5% CO2 incubator (37°C). The cells (approximately 50,000 cells per well) were cultured in a 96-well plate at a 5% CO2 incubator for 1 day. Then various concentrations of peptide solutions (50 μl) were added to the plate and incubated for another 1 day. The cells solution without peptides and blank samples without cells and peptides were prepared in the same 96-well plate as positive and negative controls, respectively. Subsequently, MTT (0.5 mg/ml, 20 μl per well) was added and the plate was incubated for another 4 h. Removed all supernatant from the plate and added 150 μl of dimethyl sulfoxide. Finally, a microplate reader (Tecan GENios F129004, Austria) was used to record the absorbance data at OD570 nm. Melittin was employed as a control peptide. The cell viability was calculated using the previously described equation ([Lai et al., 2021]).

S. aureus 29213 = format: cell-based, Staphylococcus aureus; conditions: 29213, 20 h
Source text: as §1, §2

P. aeruginosa 27853 = format: cell-based, Pseudomonas aeruginosa; conditions: 27853, 20 h
Source text: as §1, §2

IPEC-J2 = assay: MTT cytotoxicity assay; format: cell-based, porcine
Experimental: as §3

MRSA 43300 = format: cell-based, Methicillin-resistant S. aureus; conditions: 43300, 20 h
Source text: as §1, §2

S. typhimurium 14028 = format: cell-based, Salmonella typhimurium; conditions: 14028, 20 h
Source text: as §1, §2

S. typhimurium C7731 = format: cell-based, Salmonella typhimurium; conditions: C7731, 20 h
Source text: as §1, §2

E. coli UB1005 = format: cell-based, Escherichia coli; conditions: UB1005, 20 h
Source text: as §1, §2

E. coli 25922 = format: cell-based, Escherichia coli; conditions: 25922, 20 h
Source text: as §1, §2

9 bacterial strains = assay: Geometric mean MIC over the 9 bacterial strains; format: cell-based; conditions: geometric mean of the 9 strains of Table 1
Experimental: as §2

HEK293 = assay: Live/dead cell staining (calcein-AM/PI); format: cell-based, human; conditions: peptide concentration less than 64 μM
Source text: For live/dead cell staining assay, HEK293 cell lines, calcein-AM, and propidium iodide (PI) were employed to assess the cell viability. The processes that come next are the same as in the prior report ([Lai et al., 2021]). There were two technical replicates used in the experiment.

E. coli HP74 = assay: microbe, parasite or virus in culture; format: cell-based, Escherichia coli; conditions: HP74, 20 h; read-out: MICs, E. coli HP74
Source text: as §1, §2

E. coli HP73 = assay: microbe, parasite or virus in culture; format: cell-based, Escherichia coli; conditions: HP73, 20 h; read-out: MICs, E. coli HP73
Source text: as §1, §2

[1] = peptide concentration less than 64 μM

| SMILES | Stability to proteinase K (band on gel) (proteinase K; 37°C, 1, 2, 4, 8 h) | Digestion period beyond which the bands gradually vanished, proteinase K (proteinase K; 37°C) | MICs, E. faecalis 29212 (E. faecalis 29212) | MICs, S. epidermidis 12228 (S. epidermidis 12228) | Toxicity toward HEK293T (HEK293T; [1]) | MICs, S. aureus 29213 (S. aureus 29213) | MICs, P. aeruginosa 27853 (P. aeruginosa 27853) | Toxicity toward IPEC-J2 (IPEC-J2; [1]) | MICs, MRSA 43300 (MRSA 43300) | MICs, S. typhimurium 14028 (S. typhimurium 14028) | MICs, S. typhimurium C7731 (S. typhimurium C7731) | MICs, E. coli UB1005 (E. coli UB1005) | MICs, E. coli 25922 (E. coli 25922) | GM, geometric mean MICs from the 9 bacterial strains (9 bacterial strains) | Toxicity toward HEK293 (HEK293) | MIC (E. coli HP74) | MIC (E. coli HP73) | Concentration above which significant cytotoxicity toward HEK293T (HEK293T; 1 day incubation) | Concentration above which significant cytotoxicity toward IPEC-J2 (IPEC-J2; 1 day incubation) |
| --- | --- | --- | --- | --- | --- | --- | --- | --- | --- | --- | --- | --- | --- | --- | --- | --- | --- | --- | --- |
| CCCCCC(=O)NCCCC[C@H](NC(=O)[C@H](CC(C)C)NC(=O)[C@H](CCCCN)NC(=O)[C@H](CCCCN)NC(=O)[C@H](CC(C)C)NC(=O)[C@H](CCCCNC(=O)CCCCC)NC(=O)[C@H](CCCCN)NC(=O)[C@H](CCCCN)NC(=O)[C@H](CC(C)C)NC(=O)[C@H](CCCCN)NC(=O)[C@H](CCCCN)NC(=O)[C@H](CC(C)C)NC(=O)[C@@H](N)Cc1c[nH]c2ccccc12)C(=O)N[C@@H](CCCCN)C(=O)N[C@@H](CCCCN)C(=O)O [WL-C6] (H-WLKKLKKK(Hexanoyl)LKKLK(Hexanoyl)KK-OH) | cleaved by proteinase K | > 1 h | 4 µM | 4 µM | negligible toxicity | 4 µM | 2 µM | negligible toxicity | 4 µM | 2 µM | 4 µM | 4 µM | 4 µM | 3.43 µM | negligible toxicity | 4 µM (≈ 8.54 µg/mL) | 4 µM (≈ 8.54 µg/mL) |  |  |
| CCCCCCCC(=O)NCCCC[C@H](NC(=O)[C@H](CC(C)C)NC(=O)[C@H](CCCCN)NC(=O)[C@H](CCCCN)NC(=O)[C@H](CC(C)C)NC(=O)[C@H](CCCCNC(=O)CCCCCCC)NC(=O)[C@H](CCCCN)NC(=O)[C@H](CCCCN)NC(=O)[C@H](CC(C)C)NC(=O)[C@H](CCCCN)NC(=O)[C@H](CCCCN)NC(=O)[C@H](CC(C)C)NC(=O)[C@@H](N)Cc1c[nH]c2ccccc12)C(=O)N[C@@H](CCCCN)C(=O)N[C@@H](CCCCN)C(=O)O [WL-C8] (H-WLKKLKKK(Octanoyl)LKKLK(Octanoyl)KK-OH) |  |  | 4 µM | 4 µM |  | 4 µM | 4 µM |  | 4 µM | 4 µM | 4 µM | 2 µM | 4 µM | 3.70 µM |  | 4 µM (≈ 8.76 µg/mL) | 4 µM (≈ 8.76 µg/mL) | greater than 32 μM | greater than 32 μM |
